Results on 22 compounds are retold here after PubChem BioAssay (NCI).

The structures appear in SMILES notation.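 96-well plates; 48 h exposure; 5 concentrations. Endpoints by linear interpolation between flanking doses. Not reached: highest tested concentration assigned. The concentration for 50% growth inhibition is given as GI50. TGI is the concentration that stops growth completely.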

Test systems include OVCAR-5 ovarian; RPMI-8226 leukemia; SF-295 CNS; SW-620 colon; IGROV1 ovarian; ACHN renal; NCI-H23 lung; NCI-H460 lung.
Test in all cases: NCI tumour cell line growth inhibition, 48 h

As to `CCCCCCCCCCCCN(O)C(=O)c1ccccc1`, the TGI with OVCAR-5 ovarian is 82.2 µM; in the test with RPMI-8226 leukemia, greater than 100 µM; in the test with SF-295 CNS it was greater than 100 µM; with SW-620 colon, greater than 100 µM; in the test with IGROV1 ovarian it was greater than 100 µM; with ACHN renal it was greater than 100 µM. Further, in the test on NCI-H23 lung, the TGI is 52.2 µM.

As for `Cn1c2c(c3ccccc31)CCN(CCCCN1CCN(c3cccc(Cl)c3)CC1)C2=O`, the TGI in the test with NCI-H460 lung was 28 µM; with OVCAR-5 ovarian, 16.9 µM; in the test with RPMI-8226 leukemia it was 27.4 µM; in the test with SF-295 CNS, 34 µM; with SW-620 colon it was 26.4 µM; in the test with IGROV1 ovarian it was 47 µM. Further, the values for the TGI in the test on ACHN renal and with NCI-H23 lung were 37.6 µM and 27.4 µM, respectively.

`O=C1C2c3[nH]c4ccccc4c3[C@@H]3CCCCC3C2C(=O)N1c1ccccc1` (stereo partly drawn): the TGI in the test with NCI-H460 lung was found to be 31.9 µM; in the test with OVCAR-5 ovarian, 51.8 µM; with RPMI-8226 leukemia, 47.7 µM; with SF-295 CNS, 43.2 µM; in the test on SW-620 colon, 38.8 µM; in the test with IGROV1 ovarian, 74.8 µM. The TGI in the test on ACHN renal was 81.9 µM; with NCI-H23 lung, 39.2 µM.

On to `OC(c1ccccn1)C1CNc2ccccc21` (stereo not drawn), for which the TGI in the test on NCI-H460 lung, in the test with OVCAR-5 ovarian, with RPMI-8226 leukemia, with SF-295 CNS, in the test on SW-620 colon and in the test with IGROV1 ovarian was greater than 100 µM each time. The TGI in the test on ACHN renal and with NCI-H23 lung was greater than 100 µM each time.

As for `CC(=O)OCC1O[C@@H]([S-])C(OC(C)=O)[C@H](OC(C)=O)[C@@H]1OC(C)=O.[Au+].c1ccc(CN2[CH-]N(Cc3ccccc3)C(c3ccccc3)=C2c2ccccc2)cc1`, the GI50 is 1.92 µM with OVCAR-5 ovarian, 1.9 µM with RPMI-8226 leukemia, 2.34 µM with SF-295 CNS and 1.82 µM in the test on ACHN renal. Moreover, the TGI in the test on OVCAR-5 ovarian was 3.96 µM; in the test on RPMI-8226 leukemia it was 4.94 µM; in the test with SF-295 CNS, 6.31 µM; with ACHN renal, 3.51 µM.

As to `O=C(CC(=O)C1CCOC1=O)C(=O)Nc1ccc(Cl)cc1Cl` (stereo not drawn), the TGI with NCI-H460 lung, with OVCAR-5 ovarian, with RPMI-8226 leukemia, in the test on SF-295 CNS, in the test with SW-620 colon and with IGROV1 ovarian was greater than 100 µM in each case. Besides, the TGI in the test on ACHN renal and in the test with NCI-H23 lung was greater than 100 µM each time.

For `Cc1ccc(C)c(NC(=O)CCc2nc(=S)[nH][nH]2)c1`, the TGI with NCI-H460 lung is greater than 100 µM; with OVCAR-5 ovarian it was greater than 100 µM; with RPMI-8226 leukemia, greater than 100 µM; in the test on SF-295 CNS, greater than 100 µM; in the test on SW-620 colon it was 33 µM; with IGROV1 ovarian, greater than 100 µM. Also, the TGI in the test with ACHN renal and in the test on NCI-H23 lung was greater than 100 µM in each case.

Take `COC(OC)[C@@H](C)[C@H](O)[C@](C)(O)C1OC(C)(C)OC(C(C)C=C(C)C)C1C` (stereo partly drawn): the TGI in the test with NCI-H460 lung, in the test on OVCAR-5 ovarian, with RPMI-8226 leukemia, with SF-295 CNS, with SW-620 colon and in the test on IGROV1 ovarian was greater than 100 µM in each case. In addition, the TGI with ACHN renal and in the test on NCI-H23 lung was greater than 100 µM each time.

For `CNCCCNc1nc2ccccc2c2c(=O)c3cc(Cl)ccc3sc12`, the GI50 was 1.61 µM in the test with NCI-H460 lung; 1.62 µM with OVCAR-5 ovarian; 1.74 µM in the test on SF-295 CNS; 1.62 µM in the test with SW-620 colon; 1.51 µM in the test on IGROV1 ovarian; 1.51 µM in the test on ACHN renal. Moreover, the GI50 in the test on NCI-H23 lung is 1.61 µM. For the same compound, the TGI in the test with NCI-H460 lung amounted to 3.06 µM; with OVCAR-5 ovarian it was 3.03 µM; in the test on SF-295 CNS it was 3.27 µM; in the test on SW-620 colon, 3.09 µM; in the test with IGROV1 ovarian it was 3.18 µM; in the test with ACHN renal it was 2.89 µM. The compound further registered a TGI in the test on NCI-H23 lung of 3.18 µM.

As for `CC(=O)NNc1nc(C)c(C(/C=C/c2ccc(Cl)cc2)=N/NC(=O)C[N+](C)(C)C)s1`, the TGI with NCI-H460 lung, with OVCAR-5 ovarian, in the test on SF-295 CNS, with SW-620 colon, in the test on IGROV1 ovarian and in the test on ACHN renal was greater than 100 µM each time. Also, the TGI in the test on NCI-H23 lung was greater than 100 µM.

`COc1cc(-c2cc(=O)c3cc(C)c(C)c(C(=O)O)c3o2)cc(OC)c1OC`: the TGI in the test with NCI-H460 lung, in the test with OVCAR-5 ovarian, with RPMI-8226 leukemia, in the test with SF-295 CNS, in the test with SW-620 colon and with IGROV1 ovarian was greater than 100 µM throughout. For the same compound, the TGI with ACHN renal and in the test with NCI-H23 lung was greater than 100 µM throughout.

As to `COCCOCC(=O)N(CCn1ccc(NC(c2ccccc2)(c2ccccc2)c2ccccc2)nc1=O)CCn1cnc2nc(N)[nH]c(=O)c21`, the TGI in the test with NCI-H460 lung, in the test with OVCAR-5 ovarian, in the test with RPMI-8226 leukemia, with SF-295 CNS, with SW-620 colon and with IGROV1 ovarian was greater than 100 µM each time. In addition, the TGI in the test with ACHN renal and in the test on NCI-H23 lung was greater than 100 µM in each case.

In the case of `O=C(O)Cn1c(=O)[nH]c(=O)c2c1ncn2Cc1ccccc1`, the TGI with NCI-H460 lung, in the test with OVCAR-5 ovarian, with RPMI-8226 leukemia, in the test on SW-620 colon, in the test on ACHN renal and with NCI-H23 lung was greater than 100 µM each time.

On to `Cc1nc(Nc2ccc([N+](=O)[O-])cc2)sc1C(/C=C/c1ccc(N(C)C)cc1)=N/NC(=O)c1ccccc1`, for which the TGI in the test on NCI-H460 lung, in the test on OVCAR-5 ovarian, in the test on SF-295 CNS, in the test on SW-620 colon, in the test on IGROV1 ovarian and with ACHN renal was greater than 100 µM each time. This compound also gave a TGI with NCI-H23 lung greater than 100 µM.

For `CC(C)(C)C(=O)O[C@@H]1COC2C(O)COC21` (stereo partly drawn), the TGI with NCI-H460 lung, in the test with OVCAR-5 ovarian, with SF-295 CNS, in the test on SW-620 colon, in the test with IGROV1 ovarian and in the test with ACHN renal was greater than 100 µM each time. In the test with NCI-H23 lung, this compound had a TGI greater than 100 µM.

For the compound `CCC(C(=O)[O-])C(=O)[O-].CCC(C(=O)[O-])C(=O)[O-].N.N.NCCCCCCN.[Pt+4].[Pt+4]`, the GI50 is 7.99 µM in the test on NCI-H460 lung; 10.7 µM in the test on OVCAR-5 ovarian; 3.66 µM in the test on RPMI-8226 leukemia; 23.2 µM in the test with SF-295 CNS; 0.9 µM in the test with SW-620 colon; 8.13 µM with IGROV1 ovarian. In addition, the figures for the GI50 in the test with ACHN renal and in the test on NCI-H23 lung were 6.77 µM and 9.84 µM, respectively. Further, the TGI is 18.7 µM in the test on NCI-H460 lung; 19.7 µM in the test with OVCAR-5 ovarian; 11.9 µM in the test on RPMI-8226 leukemia; 50 µM with SF-295 CNS; 1.71 µM in the test with SW-620 colon; 18.7 µM in the test on IGROV1 ovarian. In addition, the TGI stood at 13.4 µM with ACHN renal and 24.5 µM in the test on NCI-H23 lung.

For `CC1=C(c2cc(C(=O)Nc3cccc(C(F)(F)F)c3)ncn2)Sc2ccccc2N1`, the TGI in the test with NCI-H460 lung, in the test on RPMI-8226 leukemia, with SF-295 CNS, in the test on SW-620 colon, with IGROV1 ovarian and in the test with ACHN renal was greater than 100 µM each time. Also, the TGI in the test on NCI-H23 lung was greater than 100 µM.

As for `Cc1cc(C)c(S(=O)(=O)ONC(=O)OC(C)(C)C)c(C)c1`, the TGI with NCI-H460 lung, with OVCAR-5 ovarian, with RPMI-8226 leukemia, in the test on SF-295 CNS, in the test with SW-620 colon and with IGROV1 ovarian was greater than 100 µM each time. For the same compound, the TGI in the test on ACHN renal and with NCI-H23 lung was greater than 100 µM in each case.

As for `O=C(NO)C(=O)Nc1ccc(Cl)cc1[N+](=O)[O-]`, the TGI in the test on NCI-H460 lung, in the test on OVCAR-5 ovarian, in the test on RPMI-8226 leukemia, in the test with SF-295 CNS, with SW-620 colon and in the test with IGROV1 ovarian was greater than 100 µM in each case. Further, the TGI in the test on ACHN renal and in the test on NCI-H23 lung was greater than 100 µM in each case.

`N#CC1(C=O)c2ccccc2C=CN1C(=O)c1ccccc1` (stereo not drawn): the TGI in the test on NCI-H460 lung is greater than 100 µM; with SW-620 colon, 19.3 µM; in the test on IGROV1 ovarian it was greater than 100 µM; in the test on ACHN renal, greater than 100 µM; in the test on NCI-H23 lung, greater than 100 µM.

Consider `COc1ccc(/C(=N/NC(N)=O)C(c2ccc(OC)cc2)C2C(=O)Oc3ccccc32)cc1` (stereo not drawn), for which the TGI in the test with NCI-H460 lung, with OVCAR-5 ovarian, with RPMI-8226 leukemia, in the test with SF-295 CNS, in the test with SW-620 colon and in the test on IGROV1 ovarian was greater than 100 µM in each case. The same compound gave a TGI in the test with NCI-H23 lung greater than 100 µM.

As to `O=C(NNC(=O)c1cc(/C=C/c2cccc([N+](=O)[O-])c2)[nH]c(=S)n1)Nc1ccc(Cl)cc1`, the TGI in the test with NCI-H460 lung was greater than 100 µM; with OVCAR-5 ovarian, greater than 100 µM; in the test on RPMI-8226 leukemia, 52.9 µM; with SF-295 CNS it was greater than 100 µM; with IGROV1 ovarian, greater than 100 µM; with ACHN renal, greater than 100 µM. The compound also yielded a TGI with NCI-H23 lung greater than 100 µM.
